Experimental findings from patent US20250368649A1, “TETRAHYDROPYRIDOPYRIMIDINE PAN-KRAS INHIBITORS” (Mirati Therapeutics, Inc., priority 2022, published 2025) are described below.

A value given as a limit tells only on which side of the number the result lay.

The target of assay [1] is KRas G12C (Homo sapiens, UniProt P01116, G12C). The class given is binding. The note with it: TR-FRET displacement, read-out: Binding to KRas (IC50 nM) G12C. For orientation: TR-FRET usually uses a lanthanide donor and a delayed reading to cut background.
Sequence of KRas G12C (P01116 1-169 isoform P01116-2 G12C): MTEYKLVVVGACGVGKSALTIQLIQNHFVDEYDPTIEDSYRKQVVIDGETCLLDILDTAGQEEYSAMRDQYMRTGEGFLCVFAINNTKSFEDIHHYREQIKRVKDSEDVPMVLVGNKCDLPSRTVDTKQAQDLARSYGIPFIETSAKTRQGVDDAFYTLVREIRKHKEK
Assay [2] has as its system H460 cells. Description: Inhibition of KRas-mediated phosphorylation of ERK (Cisbio HTRF pERK), H460 cells. It is filed as cell-based. As to conditions: Homo sapiens, NCI-H460, 3 h, 3 hr compound incubation.
Assay [3] deals with H358 cells. Put plainly: Inhibition of KRas-mediated phosphorylation of ERK (Cisbio HTRF pERK), H358 cells. It is filed as cell-based. As to conditions: Homo sapiens, NCI-H358, 3 h, 3 hr compound incubation.
The test system of assay [4] is HCT116 cells. Description: Inhibition of KRas-mediated phosphorylation of ERK (Cisbio HTRF pERK), HCT116 cells. It is filed as cell-based. As to conditions: Homo sapiens, HCT-116, 3 h, 3 hr compound incubation.
Assay [5] has as its target KRas G12S (Homo sapiens, UniProt P01116, G12S). The class given is binding. The note with it: TR-FRET displacement, read-out: Binding to KRas (IC50 nM) G12S.
Assay [6] deals with KRas WT (Homo sapiens, UniProt P01116). Description: KRas binding assay (TR-FRET displacement), KRas WT. The note with it: TR-FRET displacement.
Sequence of KRas WT (P01116 1-169 isoform P01116-2): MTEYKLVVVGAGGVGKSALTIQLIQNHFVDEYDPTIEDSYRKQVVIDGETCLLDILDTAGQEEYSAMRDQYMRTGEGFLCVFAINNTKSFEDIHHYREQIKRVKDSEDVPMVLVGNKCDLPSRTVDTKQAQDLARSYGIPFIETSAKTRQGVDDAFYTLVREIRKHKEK
In assay [7] the test system is H727 cells. Description: Inhibition of KRas-mediated phosphorylation of ERK (Cisbio HTRF pERK), H727 cells. The class given is cell-based. The note with it: Homo sapiens, NCI-H727, 3 h, 3 hr compound incubation.
Assay [8] has as its system ASPC1 cells. Put plainly: Inhibition of KRas-mediated phosphorylation of ERK (Cisbio HTRF pERK), ASPC1 cells. The note with it: Homo sapiens, ASPC1, 3 h, AsPC-1 cells; 3 hr compound incubation. It is filed as cell-based.
For assay [9], the system named is A549 cells. Put plainly: Inhibition of KRas-mediated phosphorylation of ERK (Cisbio HTRF pERK), A549 cells. It is filed as cell-based. The note with it: Homo sapiens, A549, 3 h, 3 hr compound incubation.
For assay [10], the target named is KRas G12D (Homo sapiens, UniProt P01116, G12D). Put plainly: biochemical. As to conditions: Binding to KRas (IC50 nM) G12D, TR-FRET displacement, KRas G12D.
Sequence of KRas G12D (P01116 1-169 isoform P01116-2 G12D): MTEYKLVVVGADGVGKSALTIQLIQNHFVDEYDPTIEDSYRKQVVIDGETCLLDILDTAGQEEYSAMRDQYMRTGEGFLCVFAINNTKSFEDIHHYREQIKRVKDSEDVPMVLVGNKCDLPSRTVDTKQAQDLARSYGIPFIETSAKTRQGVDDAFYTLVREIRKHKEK
Assay [11] deals with KRas G12V (Homo sapiens, UniProt P01116, G12V). Put plainly: biochemical. As to conditions: Binding to KRas (IC50 nM) G12V, TR-FRET displacement, KRas G12V.
Sequence of KRas G12V (P01116 1-169 isoform P01116-2 G12V): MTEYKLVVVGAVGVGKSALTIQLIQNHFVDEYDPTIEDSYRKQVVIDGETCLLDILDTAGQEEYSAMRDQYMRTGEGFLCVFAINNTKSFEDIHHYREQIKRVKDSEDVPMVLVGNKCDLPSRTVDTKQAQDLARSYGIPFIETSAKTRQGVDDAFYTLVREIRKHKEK
Assay [12] deals with KRas G12A (Homo sapiens, UniProt P01116, G12A). It is filed as binding. The note with it: TR-FRET displacement, read-out: Binding to KRas (IC50 nM) G12A.
Sequence of KRas G12A (P01116 1-169 isoform P01116-2 G12A): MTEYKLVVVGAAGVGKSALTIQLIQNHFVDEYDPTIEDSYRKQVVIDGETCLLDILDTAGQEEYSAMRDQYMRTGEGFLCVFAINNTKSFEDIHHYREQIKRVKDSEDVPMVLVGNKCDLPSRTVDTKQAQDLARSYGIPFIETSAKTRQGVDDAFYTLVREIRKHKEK
The target of assay [13] is KRas Q61H (Homo sapiens, UniProt P01116, Q61H). Description: KRas binding assay (TR-FRET displacement), KRas Q61H. The note with it: TR-FRET displacement.
Sequence of KRas Q61H (P01116 1-169 isoform P01116-2 Q61H): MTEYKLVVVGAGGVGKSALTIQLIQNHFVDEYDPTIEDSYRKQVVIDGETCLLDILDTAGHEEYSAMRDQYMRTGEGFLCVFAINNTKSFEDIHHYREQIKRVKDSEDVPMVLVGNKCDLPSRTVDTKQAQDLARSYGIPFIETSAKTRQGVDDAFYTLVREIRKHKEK
Assay [14] addresses KRas G13D (Homo sapiens, UniProt P01116, G13D). The class given is binding. As to conditions: TR-FRET displacement, read-out: Binding to KRas (IC50 nM) G13D.
Assay [15] addresses KRas G12R (Homo sapiens, UniProt P01116, G12R). Description: biochemical. As to conditions: Binding to KRas (IC50 nM) G12R, TR-FRET displacement, KRas G12R.

Sequence of KRas G12S (P01116 1-169 isoform P01116-2 G12S): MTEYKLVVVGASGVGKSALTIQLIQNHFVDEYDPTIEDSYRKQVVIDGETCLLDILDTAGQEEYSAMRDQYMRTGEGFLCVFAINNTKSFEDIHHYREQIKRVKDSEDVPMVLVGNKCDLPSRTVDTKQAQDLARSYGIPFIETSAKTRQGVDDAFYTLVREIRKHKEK
Sequence of KRas G13D (P01116 1-169 isoform P01116-2 G13D): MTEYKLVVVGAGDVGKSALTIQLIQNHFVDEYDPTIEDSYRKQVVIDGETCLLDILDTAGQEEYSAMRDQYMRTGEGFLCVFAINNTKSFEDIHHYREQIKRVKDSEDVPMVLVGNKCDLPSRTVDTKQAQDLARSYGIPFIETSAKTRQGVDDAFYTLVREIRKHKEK
Sequence of KRas G12R (P01116 1-169 isoform P01116-2 G12R): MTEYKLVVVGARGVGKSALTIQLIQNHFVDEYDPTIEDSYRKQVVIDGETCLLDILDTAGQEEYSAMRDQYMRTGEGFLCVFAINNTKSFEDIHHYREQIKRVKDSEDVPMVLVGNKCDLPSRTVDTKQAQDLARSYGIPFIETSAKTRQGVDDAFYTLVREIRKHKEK

For the compound `C[C@@H]1C[C@@H]1c1c(Cl)cc(O)cc1N1CCc2c(nc(OC[C@@]34CCCN3C[C@H](F)C4)nc2N2CCC[C@@](C)(O)C2)C1` (stereo in doubt) [Example 655, (R)-1-(7-(3-chloro-5-hydroxy-2-(cis-2-methylcyclopropyl)phenyl)-2-(((2R,7aS)-2-fluorotetrahydro-1H-pyrrolizin-7a(5H)-yl)methoxy)-5,6,7,8-tetrahydropyrido[3,4-d]pyrimidin-4-yl)-3-methylpiperidin-3-ol], the IC50 (in general, the midpoint of a concentration-inhibition curve) in [1] was found to be 4 nM; in assay [2], 237 nM; in [3], 189 nM; in assay [4], 926 nM; in assay [5] it was 5 nM; in assay [6], 5 nM. Besides, the IC50 came to 525 nM in assay [7]; 247 nM in [8]; 359 nM in [9]; 5 nM in [10]; 4 nM in [11].
Take `CCc1cccc2cccc(N3CCc4c(nc(OCC5(CN(C)C)CC5)nc4N4CCCC(c5nnc[nH]5)C4)C3)c12` (stereo not shown) [Example 514, 1-(1-(((4-(3-(4H-1,2,4-triazol-3-yl)piperidin-1-yl)-7-(8-ethylnaphthalen-1-yl)-5,6,7,8-tetrahydropyrido[3,4-d]pyrimidin-2-yl)oxy)methyl)cyclopropyl)-N,N-dimethylmethanamine]: the IC50 in assay [1] worked out at 286 nM; in assay [12], 296 nM; in assay [13], 389 nM; in assay [5], 318 nM; in assay [6], 252 nM; in assay [14], 372 nM. The IC50 turned out to be 3220 nM in [10] and 1570 nM in assay [11].
In the case of `CCc1cccc2cccc(N3CCc4c(nc(OCC5(CN(C)C)CC5)nc4N4CCCOC(CCO)C4)C3)c12` (stereo not shown) [Example 515, 2-(4-(2-((1-((dimethylamino)methyl)cyclopropyl)methoxy)-7-(8-ethylnaphthalen-1-yl)-5,6,7,8-tetrahydropyrido[3,4-d]pyrimidin-4-yl)-1,4-oxazepan-2-yl)ethan-1-ol], the IC50 in assay [1] was 373 nM; in [12], 656 nM; in [13], 877 nM; in assay [5] it was 725 nM; in assay [6], 622 nM; in assay [14] it was 988 nM. The IC50 in assay [10] turned out to be 298 nM; in assay [11], 346 nM.
For `CCc1cccc2cccc(N3CCc4c(nc(OCC5(CN(C)C)CC5)nc4N4CC(C)CC(CO)C4)C3)c12` (stereo not shown) [Example 516, (1-(2-((1-((dimethylamino)methyl)cyclopropyl)methoxy)-7-(8-ethylnaphthalen-1-yl)-5,6,7,8-tetrahydropyrido[3,4-d]pyrimidin-4-yl)-5-methylpiperidin-3-yl)methanol], the IC50 in [1] turned out to be 1030 nM; in assay [12] it was 1490 nM; in [13], 2530 nM; in assay [5], 1560 nM; in assay [6] it was 2650 nM; in [14] it was 3180 nM. Moreover, the 50% inhibitory concentration (IC50) in assay [10] was 1230 nM; in assay [11], 1150 nM.
For the compound `CCc1cccc2cccc(N3CCc4c(nc(OCC5(CN(C)C)CC5)nc4N4CCn5nnc(CO)c5C4)C3)c12` [Example 517, (5-(2-((1-((dimethylamino)methyl)cyclopropyl)methoxy)-7-(8-ethylnaphthalen-1-yl)-5,6,7,8-tetrahydropyrido[3,4-d]pyrimidin-4-yl)-4,5,6,7-tetrahydro-[1,2,3]triazolo[1,5-a]pyrazin-3-yl)methanol], the IC50 in [1] is 4470 nM; in [12], 7190 nM; in [13] it was 11500 nM; in [5], 6620 nM; in [6] it was 9330 nM; in assay [14], 15300 nM. The IC50 in assay [10] is 1260 nM; in assay [11], 3100 nM.
For `CCc1cccc2cccc(N3CCc4c(nc(OCC5(CN(C)C)CC5)nc4NCc4c(C)nnn4CC)C3)c12` [Example 518, 2-((1-((dimethylamino)methyl)cyclopropyl)methoxy)-N-((1-ethyl-4-methyl-1H-1,2,3-triazol-5-yl)methyl)-7-(8-ethylnaphthalen-1-yl)-5,6,7,8-tetrahydropyrido[3,4-d]pyrimidin-4-amine], the IC50 in assay [1] turned out to be 139 nM; in assay [12], 175 nM; in assay [13], 190 nM; in [5] it was 161 nM; in assay [6], 221 nM; in assay [14], 249 nM. For the same compound, the IC50 in assay [10] was 1930 nM; in [11], 1790 nM.
`CCc1cccc2cccc(N3CCc4c(nc(OCC5(CN(C)C)CC5)nc4N4Cc5nncn5C(C)C4)C3)c12` (stereo not shown) [Example 519, 1-(1-(((7-(8-ethylnaphthalen-1-yl)-4-(5-methyl-5,6-dihydro-[1,2,4]triazolo[4,3-a]pyrazin-7(8H)-yl)-5,6,7,8-tetrahydropyrido[3,4-d]pyrimidin-2-yl)oxy)methyl)cyclopropyl)-N,N-dimethylmethanamine]: the IC50 in assay [1] came to 2850 nM; in [12] it was 5580 nM; in [13], 5920 nM; in [5], 5480 nM; in assay [6], 5230 nM; in assay [14] it was 8140 nM. The results for the IC50 in assay [10] and in assay [11] were 2000 nM and 1560 nM, respectively.
Regarding `CCc1cccc2cccc(N3CCc4c(nc(OCC5(CN(C)C)CC5)nc4NCc4nc(C(O)C5CC5)n[nH]4)C3)c12` (stereo not shown) [Example 520, cyclopropyl(5-(((2-((1-((dimethylamino)methyl)cyclopropyl)methoxy)-7-(8-ethylnaphthalen-1-yl)-5,6,7,8-tetrahydropyrido[3,4-d]pyrimidin-4-yl)amino)methyl)-1H-1,2,4-triazol-3-yl)methanol], the IC50 in [1] was 2290 nM; in assay [12] it was 4150 nM; in [13], 5940 nM; in [5], 2900 nM; in assay [6] it was 4610 nM; in assay [14], 5070 nM. The IC50 in [10] was 2460 nM; in assay [11], 3990 nM.
As to `CCc1c(F)ccc2cc(O)cc(N3CCc4c(nc(OC[C@@]56CCCN5C[C@H](F)C6)nc4N4CCCN(CC(F)(F)F)CC4)C3)c12` [Example 649, 5-ethyl-6-fluoro-4-(2-(((2R,7aS)-2-fluorotetrahydro-1H-pyrrolizin-7a(5H)-yl)methoxy)-4-(4-(2,2,2-trifluoroethyl)-1,4-diazepan-1-yl)-5,8-dihydropyrido[3,4-d]pyrimidin-7(6H)-yl)naphthalen-2-ol], the IC50 in assay [15] was 34 nM; in assay [2] it was 2440 nM; in [3], 1100 nM; in assay [4], over 10000 nM; in assay [7] it was 3710 nM; in assay [8] it was 6520 nM. The IC50 came out at 3100 nM in assay [9], 124 nM in assay [10] and 29 nM in [11].
Turning to `CN(C)C(=O)c1cc2n(n1)CCCN(c1nc(OC[C@@]34CCCN3C[C@H](F)C4)nc3c1CCN(c1ccc(F)c4sc(N)c(C#N)c14)C3)C2` [Example 709, 5-(7-(2-amino-3-cyano-7-fluorobenzo[b]thiophen-4-yl)-2-(((2R,7aS)-2-fluorotetrahydro-1H-pyrrolizin-7a(5H)-yl)methoxy)-5,6,7,8-tetrahydropyrido[3,4-d]pyrimidin-4-yl)-N,N-dimethyl-5,6,7,8-tetrahydro-4H-pyrazolo[1,5-a][1,4]diazepine-2-carboxamide], the IC50 in [1] came to 72 nM; in assay [3], 1250 nM; in assay [5], 83 nM; in assay [6], 95 nM; in [7], 4720 nM; in assay [8], 4290 nM. Also, the values for the IC50 in assay [9], in assay [10] and in assay [11] were 8710 nM, 17 nM and 31 nM, respectively.
